Reference: article PMC11184554, “Nature-Inspired Gallinamides Are Potent Antischistosomal Agents: Inhibition of the Cathepsin B1 Protease Target and Binding Mode Analysis” (ACS Infectious Diseases, 2024)
Where “and” joins values, the source holds several entries; their conditions need not be identical. Equal entries are not always repeated.

How the values were obtained:
Type in all cases: biochemical
cathepsin D = experiment: Protease activity in S. mansoni adult extract, FRET substrate; settings: 1 μM gallinamide A, substrate Abz–Lys–Pro–Ala–Glu–Phe–Nph–Ala–Leu, in the presence of E-64, mean ± SD
From the text: (§1) We investigated whether gallinamide A inhibits the activity of the major proteases associated with proteolytic digestion in the adult schistosome gut. The digestive protease network includes the cysteine proteases cathepsins B, C, L from clan CA and legumain from clan CD, and an aspartic protease cathepsin D from clan AA.[11],[12] Their respective activities can be measured in protein extracts of S. mansoni using a kinetic assay with specific fluorogenic substrates. In addition, these activities can be attributed to particular proteases based on sensitivity to selective inhibitors[30]−[32] (Table 1). Accordingly, we exposed worm extracts to gallinamide A and analyzed the individual protease activities. Gallinamide A inhibited both the carboxydipeptidase (98%) and endopeptidase activities (94%) of cathepsin B as measured with the respective substrates, Abz–Phe–Arg–Val–Nph[15] and Cbz–Arg–Arg–AMC[33],[34] (Table 1). The activity measured with the Cbz–Phe–Arg–AMC substrate,[11],[13],[16],[33],[35] which can be cleaved by both cathepsins B and L, was inhibited by gallinamide A to a lesser extent (72%). […]
(§2) Proteolytic activities in S. mansoni adult extracts were measured in a continuous kinetic assay using the following peptidyl fluorogenic substrates (Bachem) or internally quenched FRET substrates (IOCB): 50 μM Cbz–Phe–Arg–AMC for cathepsins B and L,[13],[15] […]

cathepsins B and L = experiment: Protease activity in S. mansoni adult extract, Cbz–Phe–Arg–AMC; settings: 1 μM gallinamide A, endopeptidase, substrate Cbz–Phe–Arg–AMC, mean ± SD
From the text: as §1, §2

cathepsin C = target: T1, cathepsin C (Schistosoma mansoni, UniProt Q26563); experiment: Protease activity in S. mansoni adult extract, Gly–Arg–AMC; settings: 1 μM gallinamide A, exopeptidase (aminodipeptidase), substrate Gly–Arg–AMC, mean ± SD
T1 construct: from tissue; host or cells: soluble protein extract of mixed sex S. mansoni adults
T1 sequence (Q26563 218-454): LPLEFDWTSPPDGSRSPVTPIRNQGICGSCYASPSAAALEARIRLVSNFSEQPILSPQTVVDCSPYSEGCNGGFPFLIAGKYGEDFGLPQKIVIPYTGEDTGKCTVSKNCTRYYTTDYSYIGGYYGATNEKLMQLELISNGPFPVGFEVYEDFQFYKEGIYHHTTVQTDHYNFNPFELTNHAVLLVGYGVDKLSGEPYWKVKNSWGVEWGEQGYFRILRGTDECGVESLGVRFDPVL
From the text: as §1, §2

cathepsin B = experiment: Protease activity in S. mansoni adult extract, cathepsin B substrates (continuous fluorometric assay); settings: 1 μM gallinamide A, relative to uninhibited control, mean ± SD
From the text: as §1, §2

legumain = experiment: Protease activity in S. mansoni adult extract, Cbz–Ala–Ala–Asn–AMC; settings: 1 μM gallinamide A, substrate Cbz–Ala–Ala–Asn–AMC, in the presence of E-64, mean ± SD
From the text: as §1, §2

**Q.** For `CC[C@H](C)[C@@H](C(=O)O[C@@H](CC(C)C)C(=O)N[C@@H](CC(C)C)C(=O)N[C@@H](C)/C=C/C(=O)N1C(=O)C=C(OC)[C@@H]1C)N(C)C` [gallinamide A], which “inhibition (%)” value (cathepsin D) is on record?
**A.** < 10%

**Q.** What about the “inhibition (%)” value (cathepsin D; listed as Gallinamide A) of the same compound?
**A.** 0.01 ± 1.54%

**Q.** And the “inhibition (%)” value (cathepsins B and L)?
**A.** 72%

**Q.** And the “inhibition (%)” value (cathepsins B and L; listed as Gallinamide A)?
**A.** 71.9 ± 2.0%

**Q.** What about the “inhibition (%)” value (cathepsin C) of the same compound?
**A.** < 10%

**Q.** And the “inhibition (%)” value (cathepsin C; listed as Gallinamide A)?
**A.** 2.8 ± 1.9%

**Q.** And the “inhibition (%)” value (cathepsin B; endopeptidase activity, substrate Cbz–Arg–Arg–AMC)?
**A.** 94% and 93.7 ± 0.3%

**Q.** And the “inhibition (%)” value (cathepsin B; exopeptidase (carboxydipeptidase) activity, substrate Abz–Phe–Arg–Val–Nph)?
**A.** 98.0 ± 2.2%

**Q.** And the “inhibition (%)” value (legumain)?
**A.** < 10%

**Q.** And the “inhibition (%)” value (legumain; listed as Gallinamide A)?
**A.** 8.2 ± 0.1%
